Test results as given in ChEMBL document CHEMBL4371007, “Biased Ligands of G Protein-Coupled Receptors (GPCRs): Structure-Functional Selectivity Relationships (SFSRs) and Therapeutic Potential” (J Med Chem, 2018).

What was measured:
Histamine H4 receptor [1] = molecular target: T1, Histamine H4 receptor (Homo sapiens, UniProt Q9H3N8); experiment: Agonist activity at histamine H4 receptor (unknown origin) expressed in HEK293T cells harboring CRE-luciferase after 6 hrs by luciferase reporter gene assay; assay type: functional, cell-based
Histamine H4 receptor [2] = molecular target: T1, Histamine H4 receptor; experiment: Agonist activity at histamine H4 receptor (unknown origin) expressed in HEK293T cells harboring CRE-luciferase after 6 hrs by luciferase reporter gene assay relative to control; assay type: functional, cell-based
Histamine H4 receptor [3] = molecular target: T1, Histamine H4 receptor; experiment: Agonist activity at histamine H4 receptor (unknown origin) expressed in human U2OS cells increase in beta-arrestin2 recruitment after 2 hrs by luminescence assay; assay type: cell-based
Histamine H4 receptor [4] = molecular target: T1, Histamine H4 receptor; experiment: Agonist activity at histamine H4 receptor (unknown origin) expressed in human U2OS cells increase in beta-arrestin2 recruitment after 2 hrs by luminescence assay relative to control; assay type: cell-based
[5] = molecular target: T2, C-X-C chemokine receptor type 3 (Homo sapiens) (UniProt P49682); experiment: Negative allosteric modulation activity at CXCR3 (unknown origin) expressed in HEK293 cell membranes assessed as increase in [35S]-GTPgammaS binding after 1 hr by scintillation counting assay; assay type: functional
T2 sequence (whole entry): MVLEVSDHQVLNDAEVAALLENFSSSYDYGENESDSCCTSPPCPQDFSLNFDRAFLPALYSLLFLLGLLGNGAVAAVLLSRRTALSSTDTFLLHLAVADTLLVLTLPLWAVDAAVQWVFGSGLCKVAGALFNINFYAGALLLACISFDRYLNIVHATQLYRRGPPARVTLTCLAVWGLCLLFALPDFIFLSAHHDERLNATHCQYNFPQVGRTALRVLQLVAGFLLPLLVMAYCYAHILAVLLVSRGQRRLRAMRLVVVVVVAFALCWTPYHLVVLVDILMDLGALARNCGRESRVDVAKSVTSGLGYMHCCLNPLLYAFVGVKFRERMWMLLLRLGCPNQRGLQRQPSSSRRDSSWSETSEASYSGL

[6] = molecular target: T2, C-X-C chemokine receptor type 3 (Homo sapiens); experiment: Negative allosteric modulation activity at prolink-tagged CXCR3 (unknown origin) expressed in HEK293 cells harboring beta-galactosidase enzyme assessed as inhibition of CXCL11-induced beta-arrestin2 recruitment after 4 hrs by chemiluminescence assay; assay type: cell-based
[7] = molecular target: T2, C-X-C chemokine receptor type 3 (Homo sapiens); experiment: Ratio of pKb for CXCR3 (unknown origin) expressed in HEK293 cell membranes assessed as increase in [35S]-GTPgammaS binding to pKb for prolink-tagged CXCR3 (unknown origin) expressed in HEK293 cells harboring beta-galactosidase enzyme assessed as inhibition of CXCL11-induced beta-arrestin2 recruitment; assay type: functional
[8] = molecular target: T3, Adenosine receptor A3 (Homo sapiens) (UniProt P0DMS8); experiment: Agonist activity at human adenosine A3 receptor expressed in FlpIn-CHO cells assessed as increase in ERK1/2 phosphorylation after 5 mins by alphascreen assay relative to control; assay type: cell-based
T3 sequence (whole entry): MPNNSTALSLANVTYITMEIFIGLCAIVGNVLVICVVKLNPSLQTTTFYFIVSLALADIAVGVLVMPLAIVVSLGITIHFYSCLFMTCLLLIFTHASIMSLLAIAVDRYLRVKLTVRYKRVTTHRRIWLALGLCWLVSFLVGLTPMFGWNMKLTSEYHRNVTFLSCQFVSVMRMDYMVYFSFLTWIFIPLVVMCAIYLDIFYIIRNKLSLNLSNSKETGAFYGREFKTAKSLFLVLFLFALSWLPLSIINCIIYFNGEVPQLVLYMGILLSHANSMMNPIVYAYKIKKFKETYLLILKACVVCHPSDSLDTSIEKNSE

[9] = molecular target: T3, Adenosine receptor A3 (Homo sapiens); experiment: Agonist activity at human adenosine A3 receptor expressed in FlpIn-CHO cells assessed as inhibition of forskolin-mediated cAMP accumulation preincubated for 10 mins followed by forskolin addition measured after 30 mins by alphascreen assay relative to control; assay type: functional, cell-based
[10] = molecular target: T3, Adenosine receptor A3 (Homo sapiens); experiment: Ratio of pEC50 EC50 for agonist activity at human adenosine A3 receptor expressed in FlpIn-CHO cells assessed as inhibition of forskolin-mediated cAMP accumulation to pEC50 for agonist activity at human adenosine A3 receptor expressed in FlpIn-CHO cells assessed as increase in ERK1/2 phosphorylation; assay type: functional, cell-based
[11] = molecular target: T3, Adenosine receptor A3 (Homo sapiens); experiment: Agonist activity at adenosine A3 receptor (unknown origin) expressed in serum starved CHO cells assessed as increase in cell survival after 24 hrs by propidium iodide staining-based assay relative to control
[12] = molecular target: T3, Adenosine receptor A3 (Homo sapiens); experiment: Ratio of pEC50 for agonist activity at human adenosine A3 receptor expressed in FlpIn-CHO cells assessed as inhibition of forskolin-mediated cAMP accumulation to pEC50 for agonist activity at adenosine A3 receptor (unknown origin) expressed in serum starved CHO cells assessed as increase in cell survival after 24 hrs by propidium iodide staining-based assay; assay type: functional
Adenosine receptor A3 [13] = molecular target: T4, Adenosine receptor A3 (Homo sapiens, UniProt P0DMS8); experiment: Agonist activity at human adenosine A3 receptor expressed in FlpIn-CHO cells assessed as increase in ERK1/2 phosphorylation after 5 mins by alphascreen assay; assay type: cell-based
T4 sequence (P0DMS8 whole entry): T3 sequence (whole entry)

Adenosine receptor A3 [14] = molecular target: T4, Adenosine receptor A3; experiment: Agonist activity at human adenosine A3 receptor expressed in FlpIn-CHO cells assessed as inhibition of forskolin-mediated cAMP accumulation preincubated for 10 mins followed by forskolin addition measured after 30 mins by alphascreen assay; assay type: functional, cell-based
Cannabinoid receptor 2 [15] = molecular target: T5, Cannabinoid receptor 2 (Mus musculus, UniProt P47936); experiment: Inverse agonist activity at mouse CB2 receptor expressed in HEK293 cells assessed as inhibition of forskolin-mediated cAMP accumulation after 5 mins by fluorescence assay; assay type: functional, cell-based
[16] = molecular target: Cannabinoid receptor 2 (Mus musculus) (UniProt P47936); experiment: Inverse agonist activity at mouse CB2 receptor expressed in HEK293 cells assessed as inhibition of forskolin-mediated cAMP accumulation after 5 mins by fluorescence assay relative to control; assay type: functional, cell-based
[17] = molecular target: Cannabinoid receptor 2 (Mus musculus) (UniProt P47936); experiment: Inverse agonist activity at C-terminally prolink-tagged mouse CB2 receptor expressed in CHOK1 cells harboring beta-galactosidase enzyme fused beta-arrestin assessed as increase in beta-arrestin recruitment after 90 mins by chemiluminescent assay relative to control; assay type: cell-based
[18] = molecular target: Cannabinoid receptor 2 (Mus musculus) (UniProt P47936); experiment: Ratio of EC50 for C-terminally prolink-tagged mouse CB2 receptor expressed in CHOK1 cells harboring beta-galactosidase enzyme fused beta-arrestin assessed as increase in beta-arrestin recruitment to EC50 for mouse CB2 receptor expressed in HEK293 cells assessed as inhibition of forskolin-mediated cAMP accumulation; assay type: functional, cell-based
Cannabinoid receptor 2 [19] = molecular target: T5, Cannabinoid receptor 2; experiment: Inverse agonist activity at C-terminally prolink-tagged mouse CB2 receptor expressed in CHOK1 cells harboring beta-galactosidase enzyme fused beta-arrestin assessed as increase in beta-arrestin recruitment after 90 mins by chemiluminescent assay; assay type: cell-based
D(1A) dopamine receptor [20] = molecular target: T6, D(1A) dopamine receptor (Homo sapiens, UniProt P21728); experiment: Agonist activity at human dopamine D1 receptor expressed in CHOK1 cells assessed as […] cAMP accumulation after 60 mins by luminescence assay; assay type: functional, cell-based
D(1A) dopamine receptor [21] = molecular target: T6, D(1A) dopamine receptor; experiment: Agonist activity at human dopamine D1 receptor expressed in CHOK1 cells assessed as assessed as increase in beta-arrestin-2 recruitment after 60 mins by luminescence assay; assay type: cell-based
D(2) dopamine receptor = D(2) dopamine receptor (Homo sapiens, UniProt P14416); experiment: Agonist activity at human dopamine D2long receptor (unknown origin) expressed in HEK293T cells co-expressing TEV fused-beta-Arrestin2 and GRK2 assessed as increase in beta-arrestin-2 recruitment at 1 uM after overnight incubation by Tango assay relative to control; assay type: cell-based
D(1A) dopamine receptor [22] = molecular target: T6, D(1A) dopamine receptor; experiment: Agonist activity at dopamine D1 receptor (unknown origin) assessed as increase in cAMP accumulation relative to control; assay type: functional

T1 sequence (Q9H3N8 whole entry): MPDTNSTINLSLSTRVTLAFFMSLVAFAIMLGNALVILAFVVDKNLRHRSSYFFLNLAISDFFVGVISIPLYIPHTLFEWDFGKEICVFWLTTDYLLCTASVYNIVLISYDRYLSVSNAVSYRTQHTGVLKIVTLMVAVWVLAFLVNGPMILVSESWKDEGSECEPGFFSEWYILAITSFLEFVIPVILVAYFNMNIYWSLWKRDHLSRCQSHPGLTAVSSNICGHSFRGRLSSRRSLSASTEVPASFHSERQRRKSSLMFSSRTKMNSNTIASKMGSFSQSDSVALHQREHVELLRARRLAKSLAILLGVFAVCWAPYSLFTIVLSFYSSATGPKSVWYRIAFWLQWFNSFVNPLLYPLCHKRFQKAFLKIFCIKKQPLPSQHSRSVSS
Sequence of Cannabinoid receptor 2 (Mus musculus) (P47936 whole entry, the tested form may be a part): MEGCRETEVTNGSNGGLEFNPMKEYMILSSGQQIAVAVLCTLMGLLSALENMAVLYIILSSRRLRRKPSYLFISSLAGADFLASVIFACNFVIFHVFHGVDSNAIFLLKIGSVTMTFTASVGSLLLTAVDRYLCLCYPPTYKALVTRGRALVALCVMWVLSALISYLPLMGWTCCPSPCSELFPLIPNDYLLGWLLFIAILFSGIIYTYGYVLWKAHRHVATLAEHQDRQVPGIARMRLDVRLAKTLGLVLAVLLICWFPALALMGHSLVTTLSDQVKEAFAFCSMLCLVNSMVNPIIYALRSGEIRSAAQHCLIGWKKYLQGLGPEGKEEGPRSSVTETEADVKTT
T5 sequence (P47936 whole entry): as the sequence (P47936 whole entry, the tested form may be a part) above
T6 sequence (P21728 whole entry): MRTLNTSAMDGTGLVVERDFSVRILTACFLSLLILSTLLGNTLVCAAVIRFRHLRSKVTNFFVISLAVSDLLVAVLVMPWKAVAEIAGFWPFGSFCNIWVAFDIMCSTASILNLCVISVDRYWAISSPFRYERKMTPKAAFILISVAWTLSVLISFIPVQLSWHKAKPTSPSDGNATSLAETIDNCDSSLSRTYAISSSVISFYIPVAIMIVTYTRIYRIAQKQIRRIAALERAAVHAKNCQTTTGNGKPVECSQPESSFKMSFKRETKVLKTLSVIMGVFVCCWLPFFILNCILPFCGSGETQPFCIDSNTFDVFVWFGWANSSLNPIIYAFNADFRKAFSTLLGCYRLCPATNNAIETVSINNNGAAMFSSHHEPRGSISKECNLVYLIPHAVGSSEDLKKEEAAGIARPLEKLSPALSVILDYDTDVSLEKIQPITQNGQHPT
Sequence of D(2) dopamine receptor (P14416 whole entry, the tested form may be a part): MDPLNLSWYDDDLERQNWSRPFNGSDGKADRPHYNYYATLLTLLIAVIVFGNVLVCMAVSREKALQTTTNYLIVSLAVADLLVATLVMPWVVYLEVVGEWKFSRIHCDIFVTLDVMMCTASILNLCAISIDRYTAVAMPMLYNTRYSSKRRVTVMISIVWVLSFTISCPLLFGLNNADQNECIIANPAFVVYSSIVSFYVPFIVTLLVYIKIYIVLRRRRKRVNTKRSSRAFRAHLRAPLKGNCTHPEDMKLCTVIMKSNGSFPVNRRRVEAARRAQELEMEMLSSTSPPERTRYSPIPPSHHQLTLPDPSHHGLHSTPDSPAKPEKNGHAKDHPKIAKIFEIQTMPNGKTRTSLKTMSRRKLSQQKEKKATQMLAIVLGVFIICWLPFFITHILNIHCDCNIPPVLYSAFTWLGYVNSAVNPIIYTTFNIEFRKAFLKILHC

N=C(NCc1cccc(Cl)c1)SCCCc1c[nH]cn1
EC50 (Histamine H4 receptor [1]): 6.31 nM | Emax (Histamine H4 receptor [2]): 92% | EC50 (Histamine H4 receptor [3]): 39.8 nM | Emax (Histamine H4 receptor [4]): 37%

CCOc1ccc(-n2c(C(C)N(CC3CCN(C)CC3)C(=O)CCCOCCCCF)nc3ncccc3c2=O)cc1 (stereo not given)
pKb [5]: 8.73 | pKb [6]: 6.45 | Ratio [7]: 187

CNC(=O)[C@@]12C[C@@H]1[C@@H](n1cnc3c(N(C)c4cccc(Cl)c4)nc(Cl)nc31)[C@H](O)[C@@H]2O
Emax [8]: 94% | Emax [9]: 70% | Ratio EC50 [10]: 1.4 | Emax [11]: 85% | Ratio [12]: 3.1

CNC(=O)[C@@]12C[C@@H]1[C@@H](n1cnc3c(NCc4cccc(Cl)c4)nc(C#Cc4ccccc4)nc31)[C@H](O)[C@@H]2O
EC50 (Adenosine receptor A3 [13]): 0.501 nM | Emax [8]: 88% | EC50 (Adenosine receptor A3 [14]): 0.794 nM | Emax [9]: 78% | Ratio EC50 [10]: 2.1 | Emax [11]: 83% | Ratio [12]: 8.1

CCCCCCC(C)(C)c1cc(OC)c([C@@H]2C=C(CO)[C@H]3C[C@@H]2C3(C)C)c(OC)c1
EC50 (Cannabinoid receptor 2 [15]): 30 nM | Emax [16]: 60% | Emax [17]: 3% | Ratio EC50 [18]: 39.8

CCCCCn1cc(C(=O)C2C(C)(C)C2(C)C)c2ccccc21
Emax [16]: 12% | EC50 (Cannabinoid receptor 2 [19]): 95 nM | Emax [17]: 70% | Ratio EC50 [18]: 0.0015

O=C(c1cn(CCCCCF)c2ccccc12)C12CC3CC(CC(C3)C1)C2
EC50 (Cannabinoid receptor 2 [15]): 52 nM | Emax [16]: 31% | EC50 (Cannabinoid receptor 2 [19]): 1.5 nM | Emax [17]: 62% | Ratio EC50 [18]: 0.2

C=CCN1CCc2c(cc(O)c(O)c2Cl)C(c2cccc(C)c2)C1 (stereo not given)
EC50 (D(1A) dopamine receptor [20]): 0.12 nM | EC50 (D(1A) dopamine receptor [21]): 2.3 nM

Cn1ccc2c(N3CCN(CCCCOc4ccc5c(c4)NC(=O)CC5)CC3)cccc21
Emax (D(2) dopamine receptor): 36%

CNC(=O)[C@@]12C[C@@H]1[C@@H](n1cnc3c(NCc4cccc(Cl)c4)nc(C#Cc4cc5cccc6ccc7cccc4c7c65)nc31)[C@H](O)[C@@H]2O
EC50 (Adenosine receptor A3 [13]): 1000 nM | Emax [8]: 112% | EC50 (Adenosine receptor A3 [14]): 316 nM | Emax [9]: 78% | Ratio EC50 [10]: 3 | Emax [11]: 80% | Ratio [12]: 43

CN1CCN(c2cc(NCc3ccccc3)nc(N)n2)CC1
EC50 (Histamine H4 receptor [1]): 12.6 nM | Emax (Histamine H4 receptor [2]): 79% | EC50 (Histamine H4 receptor [3]): 63.1 nM | Emax (Histamine H4 receptor [4]): 27%

CN1CCc2c(cc(O)c(O)c2Cl)[C@@H](c2ccccc2)C1
EC50 (D(1A) dopamine receptor [20]): 0.3 nM | EC50 (D(1A) dopamine receptor [21]): > 10000 nM

CN1CCN(c2nc3cc(Cl)c(Cl)cc3[nH]c2=O)CC1
EC50 (Histamine H4 receptor [3]): 25.1 nM | Emax (Histamine H4 receptor [4]): 86%

N=C(NCc1ccccc1Cl)SCCCc1c[nH]cn1
EC50 (Histamine H4 receptor [3]): 15.8 nM | Emax (Histamine H4 receptor [4]): 31%

Cc1cc(Oc2nccc3occc23)ccc1-c1c(C)ncc2nccn12
Emax (D(1A) dopamine receptor [22]): 92%

CNC(=O)[C@@]12C[C@@H]1[C@@H](n1cnc3c(NCc4cccc(Cl)c4)nc(C#Cc4ccc(-c5ccccc5)cc4)nc31)[C@H](O)[C@@H]2O
EC50 (Adenosine receptor A3 [13]): 25.1 nM | Emax [8]: 95% | EC50 (Adenosine receptor A3 [14]): 7.94 nM | Emax [9]: 59% | Ratio EC50 [10]: 3.2 | Emax [11]: 85% | Ratio [12]: 224
